Measurements published in publication PMC3598725, “Transporter engineering for improved tolerance against alkane biofuels in Saccharomyces cerevisiae” (Biotechnology for Biofuels, 2013).

How the values were obtained:
ABC3 = molecular target: T1, ABC3 (Yarrowia lipolytica, UniProt Q6CFY4); test: intracellular alkane level by GC, S. cerevisiae expressing transporter vs empty plasmid; type: cell-based; settings: 48 h, whole-cell efflux, indirect
T1 construct: gene YALI0_B02544g; full-length, C-terminal 6xHis tag, pYES2 (GAL1) in S. cerevisiae BY4741; 167 kDa on western blot; plasma membrane
T1 sequence (Q6CFY4 1-1485): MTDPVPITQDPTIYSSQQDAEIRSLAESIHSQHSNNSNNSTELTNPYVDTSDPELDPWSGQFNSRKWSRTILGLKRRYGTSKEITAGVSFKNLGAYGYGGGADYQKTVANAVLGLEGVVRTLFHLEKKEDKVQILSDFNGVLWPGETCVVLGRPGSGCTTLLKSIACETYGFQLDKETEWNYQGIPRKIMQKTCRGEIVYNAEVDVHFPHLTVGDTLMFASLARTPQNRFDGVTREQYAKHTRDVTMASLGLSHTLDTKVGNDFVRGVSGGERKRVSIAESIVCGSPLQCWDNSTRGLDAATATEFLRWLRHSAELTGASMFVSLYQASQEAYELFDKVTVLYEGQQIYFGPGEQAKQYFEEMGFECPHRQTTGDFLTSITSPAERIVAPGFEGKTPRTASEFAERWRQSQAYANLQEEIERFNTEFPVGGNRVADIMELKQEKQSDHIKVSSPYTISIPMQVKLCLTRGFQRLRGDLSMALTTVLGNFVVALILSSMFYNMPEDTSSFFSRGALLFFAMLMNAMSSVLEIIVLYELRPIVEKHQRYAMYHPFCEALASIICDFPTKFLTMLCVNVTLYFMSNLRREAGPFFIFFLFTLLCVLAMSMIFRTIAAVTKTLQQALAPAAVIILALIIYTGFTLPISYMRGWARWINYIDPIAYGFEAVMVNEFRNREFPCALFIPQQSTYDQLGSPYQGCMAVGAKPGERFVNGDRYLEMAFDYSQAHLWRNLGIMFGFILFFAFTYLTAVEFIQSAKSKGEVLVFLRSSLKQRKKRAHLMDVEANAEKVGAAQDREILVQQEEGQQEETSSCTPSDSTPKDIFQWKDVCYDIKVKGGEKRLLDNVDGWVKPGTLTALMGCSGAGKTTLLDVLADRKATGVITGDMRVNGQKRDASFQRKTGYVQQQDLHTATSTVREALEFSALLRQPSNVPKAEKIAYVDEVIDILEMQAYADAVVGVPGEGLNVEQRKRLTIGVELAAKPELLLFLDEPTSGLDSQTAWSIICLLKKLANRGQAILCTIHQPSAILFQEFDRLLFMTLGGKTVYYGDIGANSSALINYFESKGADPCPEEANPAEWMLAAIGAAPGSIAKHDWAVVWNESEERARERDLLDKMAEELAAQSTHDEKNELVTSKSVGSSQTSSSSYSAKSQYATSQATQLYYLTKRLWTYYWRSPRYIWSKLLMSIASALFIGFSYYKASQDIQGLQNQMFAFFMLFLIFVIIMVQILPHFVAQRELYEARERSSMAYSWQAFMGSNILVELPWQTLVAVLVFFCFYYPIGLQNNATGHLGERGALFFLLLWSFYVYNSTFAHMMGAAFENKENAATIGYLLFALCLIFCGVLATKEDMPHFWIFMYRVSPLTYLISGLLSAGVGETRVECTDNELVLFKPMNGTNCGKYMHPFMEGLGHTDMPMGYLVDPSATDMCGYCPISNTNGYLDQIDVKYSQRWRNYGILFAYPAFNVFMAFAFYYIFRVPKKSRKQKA

ABC2 = molecular target: T2, ABC2 (Yarrowia lipolytica, UniProt Q6CBB8); test: as above; type: cell-based; settings: 48 h, whole-cell efflux, indirect
T2 construct: gene YALI0_C20265g; full-length, C-terminal 6xHis tag, pYES2 (GAL1) in S. cerevisiae BY4741; 165 kDa on western blot; plasma membrane
T2 sequence (Q6CBB8 1-1469): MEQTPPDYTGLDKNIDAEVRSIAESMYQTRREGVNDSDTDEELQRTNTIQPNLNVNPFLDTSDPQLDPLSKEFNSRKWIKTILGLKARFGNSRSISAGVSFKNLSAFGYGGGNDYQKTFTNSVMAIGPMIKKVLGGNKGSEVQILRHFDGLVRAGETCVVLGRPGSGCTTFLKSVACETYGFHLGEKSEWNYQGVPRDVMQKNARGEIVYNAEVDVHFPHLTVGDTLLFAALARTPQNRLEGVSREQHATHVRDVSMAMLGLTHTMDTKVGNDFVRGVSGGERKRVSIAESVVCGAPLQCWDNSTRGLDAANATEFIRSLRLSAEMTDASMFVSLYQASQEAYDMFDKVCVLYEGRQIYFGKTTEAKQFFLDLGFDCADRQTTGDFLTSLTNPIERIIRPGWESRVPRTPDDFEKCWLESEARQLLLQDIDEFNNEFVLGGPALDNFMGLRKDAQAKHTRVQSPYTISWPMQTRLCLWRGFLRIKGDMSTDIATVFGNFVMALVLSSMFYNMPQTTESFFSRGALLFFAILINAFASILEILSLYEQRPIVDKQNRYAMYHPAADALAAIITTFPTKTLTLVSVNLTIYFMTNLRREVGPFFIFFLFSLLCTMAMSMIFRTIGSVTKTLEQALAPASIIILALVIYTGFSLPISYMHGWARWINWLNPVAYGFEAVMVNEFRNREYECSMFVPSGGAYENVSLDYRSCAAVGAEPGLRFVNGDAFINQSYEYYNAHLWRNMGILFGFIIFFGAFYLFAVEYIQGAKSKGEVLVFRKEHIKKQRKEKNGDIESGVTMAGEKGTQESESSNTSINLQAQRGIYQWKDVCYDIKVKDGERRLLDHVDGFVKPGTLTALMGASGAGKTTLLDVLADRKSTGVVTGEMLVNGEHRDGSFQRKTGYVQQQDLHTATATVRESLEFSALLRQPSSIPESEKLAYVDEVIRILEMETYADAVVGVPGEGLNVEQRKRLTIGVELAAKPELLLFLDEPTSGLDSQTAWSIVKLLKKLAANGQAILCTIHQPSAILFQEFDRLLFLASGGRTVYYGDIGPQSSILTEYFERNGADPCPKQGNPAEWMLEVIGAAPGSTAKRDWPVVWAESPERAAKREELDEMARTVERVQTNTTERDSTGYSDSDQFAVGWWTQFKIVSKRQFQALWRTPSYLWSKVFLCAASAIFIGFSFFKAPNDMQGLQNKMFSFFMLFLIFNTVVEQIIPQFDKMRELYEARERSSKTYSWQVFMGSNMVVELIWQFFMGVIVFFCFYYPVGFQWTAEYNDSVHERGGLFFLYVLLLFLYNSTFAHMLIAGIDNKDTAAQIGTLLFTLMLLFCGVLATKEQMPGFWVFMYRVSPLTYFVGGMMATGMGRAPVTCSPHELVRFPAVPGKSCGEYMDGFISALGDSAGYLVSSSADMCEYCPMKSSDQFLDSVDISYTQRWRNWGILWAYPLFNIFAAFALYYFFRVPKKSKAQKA

Row | SMILES | fold lower intracellular level (ABC3; 0.5% (vol/vol) decane) | fold lower intracellular level (ABC2; 0.5% (vol/vol) decane) | fold lower intracellular level (ABC3; 20% (vol/vol) undecane) | fold lower intracellular level (ABC2; 20% (vol/vol) undecane)
1 | CCCCCCCCCC [decane] | ~ 5 fold | ~ 5 fold |  | 
2 | CCCCCCCCCCC [undecane] |  |  | ~ 30 fold | ~ 30 fold
